Data from the NIST ThermoML archive (doi:10.1021/je101130e).

What was measured:
[1] = cn = amount concentration of the nth substance listed, in mol/dm3; conditions: 101 kPa, Liquid, Alternating current cell with electrodes
[2] = mn = molality of the nth substance listed, in mol/kg; conditions: 298.15 K, 101 kPa, Liquid, Vibrating tube method

CCOS(=O)(=O)[O-].CCn1cc[n+](C)c1 [1-ethyl-3-methylimidazolium ethyl sulfate] + CC#N
molar conductivity [S·m2/mol], [1]
Conditions | 273.15 K | 278.15 K | 283.15 K | 288.15 K | 293.15 K | 298.15 K | 303.15 K | 308.15 K | 313.15 K
c1 = 0.3706 | 0.01282 | 0.01356 | 0.014309 | 0.015072 | 0.01584 | 0.01663 | 0.017423 | 0.018226 | 0.019045
c1 = 0.7493 | 0.01255 | 0.01327 | 0.014004 | 0.01475 | 0.0155 | 0.016262 | 0.01704 | 0.01782 | 0.01862
c1 = 1.176 | 0.012313 | 0.013021 | 0.01374 | 0.01447 | 0.015211 | 0.01596 | 0.01672 | 0.017492 | 0.018273
c1 = 1.698 | 0.012085 | 0.01278 | 0.013489 | 0.014207 | 0.01493 | 0.01567 | 0.016414 | 0.017171 | 0.01794
c1 = 2.185 | 0.01189 | 0.01258 | 0.013276 | 0.01398 | 0.0147 | 0.01542 | 0.016154 | 0.0169 | 0.01765
c1 = 2.695 | 0.01172 | 0.012392 | 0.013078 | 0.01377 | 0.01448 | 0.01519 | 0.01591 | 0.01664 | 0.017386
c1 = 3.269 | 0.01154 | 0.012206 | 0.01288 | 0.01357 | 0.014261 | 0.01496 | 0.01567 | 0.016396 | 0.017125
c1 = 3.882 | 0.011371 | 0.012029 | 0.0127 | 0.01337 | 0.014054 | 0.01475 | 0.015446 | 0.016155 | 0.01687
c1 = 4.671 | 0.01117 | 0.01182 | 0.01247 | 0.013136 | 0.01381 | 0.01449 | 0.015177 | 0.01588 | 0.01658
c1 = 5.374 | 0.011016 | 0.01165 | 0.0123 | 0.01295 | 0.01362 | 0.014287 | 0.01497 | 0.01566 | 0.01635
c1 = 5.987 | 0.01089 | 0.01152 | 0.012165 | 0.01281 | 0.01347 | 0.014134 | 0.0148 | 0.01549 | 0.016173
c1 = 6.546 | 0.01079 | 0.011417 | 0.012051 | 0.01269 | 0.013343 | 0.014 | 0.01467 | 0.015338 | 0.016021

[2]
Conditions | mass density [kg/m3]
m1 = 0.006546 | 777.183
m1 = 0.1445 | 788.755

CCOS(=O)(=O)[O-].CCn1cc[n+](C)c1 [1-ethyl-3-methylimidazolium ethyl sulfate] + ClCCl
molar conductivity [S·m2/mol], [1]
Conditions | 273.15 K | 278.15 K | 283.15 K | 288.15 K | 293.15 K | 298.15 K | 303.15 K | 308.15 K
c1 = 0.5399 | 0.0004064 | 0.0004194 | 0.0004324 | 0.0004454 | 0.0004554 | 0.000462 | 0.000471 | 0.0004771
c1 = 0.8656 | 0.0003364 | 0.0003471 | 0.0003579 | 0.0003684 | 0.0003768 | 0.0003829 | 0.0003904 | 0.0003958
c1 = 1.152 | 0.0003033 | 0.0003131 | 0.0003228 | 0.0003322 | 0.0003398 | 0.0003455 | 0.0003521 | 0.0003571
c1 = 1.504 | 0.0002764 | 0.0002855 | 0.0002943 | 0.0003028 | 0.0003098 | 0.0003152 | 0.0003212 | 0.0003258
c1 = 1.808 | 0.0002603 | 0.0002689 | 0.0002772 | 0.0002852 | 0.0002918 | 0.0002971 | 0.0003029 | 0.0003073
c1 = 2.099 | 0.0002493 | 0.0002575 | 0.0002653 | 0.000273 | 0.0002794 | 0.0002845 | 0.00029 | 0.0002942
c1 = 2.376 | 0.0002409 | 0.0002489 | 0.0002566 | 0.000264 | 0.0002702 | 0.0002753 | 0.0002806 | 0.0002849
c1 = 2.723 | 0.0002334 | 0.0002412 | 0.0002486 | 0.0002557 | 0.0002618 | 0.0002668 | 0.000272 | 0.0002762
c1 = 3.074 | 0.0002276 | 0.0002352 | 0.0002425 | 0.0002494 | 0.0002554 | 0.0002604 | 0.0002655 | 0.0002698
c1 = 3.333 | 0.000224 | 0.0002315 | 0.0002387 | 0.0002455 | 0.0002514 | 0.0002564 | 0.0002615 | 0.0002657
c1 = 3.607 | 0.0002213 | 0.0002288 | 0.0002359 | 0.0002427 | 0.0002488 | 0.0002538 | 0.0002588 | 0.000263
c1 = 3.931 | 0.000219 | 0.0002264 | 0.0002334 | 0.0002401 | 0.0002459 | 0.000251 | 0.000256 | 0.0002601

CCOS(=O)(=O)[O-].CCn1cc[n+](C)c1 [1-ethyl-3-methylimidazolium ethyl sulfate] + O
molar conductivity [S·m2/mol], [1]
Conditions | c1 = 0.6368 | c1 = 1.07 | c1 = 1.527 | c1 = 1.991 | c1 = 2.48 | c1 = 3.114 | c1 = 3.767 | c1 = 4.385 | c1 = 5.086
278.15 K | 0.00496 | 0.0049391 | 0.0049163 | 0.004892 | 0.004877 | 0.0048486 | 0.0048261 | 0.00479 | 0.004783
283.15 K | 0.0057155 | 0.00569 | 0.005664 | 0.0056374 | 0.0056159 | 0.005585 | 0.005559 | 0.0055336 | 0.0055088
288.15 K | 0.0065118 | 0.00648 | 0.0064496 | 0.0064206 | 0.006395 | 0.00636 | 0.0063311 | 0.0063021 | 0.006274
293.15 K | 0.0073408 | 0.0073039 | 0.007271 | 0.0072366 | 0.0072073 | 0.007169 | 0.007135 | 0.0071023 | 0.007071
298.15 K | 0.0082055 | 0.008163 | 0.008125 | 0.008088 | 0.008054 | 0.0080112 | 0.007974 | 0.0079372 | 0.0079028
303.15 K | 0.009098 | 0.009052 | 0.0090088 | 0.008967 | 0.00893 | 0.008882 | 0.0088395 | 0.008799 | 0.008761
308.15 K | 0.010022 | 0.00997 | 0.0099213 | 0.009875 | 0.0098348 | 0.009782 | 0.0097357 | 0.009689 | 0.0096453
313.15 K | 0.01096 | 0.01092 | 0.01086 | 0.01081 | 0.01076 | 0.01071 | 0.01066 | 0.01061 | 0.01056

[2]
Conditions | mass density [kg/m3]
m1 = 0.005086 | 997.281
m1 = 0.06934 | 1000.11
